Experimental data as given in PMC9751290, “Design, synthesis, in vitro, in silico, and SAR studies of flavone analogs towards anti-dengue activity” (Scientific Reports, 2022).
“Also recorded” adds a separate entry of the source. Read-outs that look alike come from different tables or passages of the source.

Assays:
[1] = Cellular toxicity in LLC/MK2 cells (MTS assay); type: cell-based; conditions: rhesus monkey
Experimental: Cytotoxicity of the compounds was also accessed at the concentration of 10 µM in parallel with the viral inhibition screening. LLC/MK2 cells (1 × 10^4) were seeded in 96-well plate and incubated at 37 °C under 5% CO2 overnight; compounds were added after 24 h, and then incubated for 2 days. DMSO at 1% was used as mock treatment. Cytotoxicity was measured using CellTiter 96® Aqueous One Solution Cell Proliferation Assay (MTS) kit (Promega, Wisconsin-Madison, WI, USA) according to the manufacturer’s instruction and analyzed by EnSight Multimode Plate Reader spectrophotometry at A450nm. (Perkin Elmer, Waltham, MA, USA).

DENV2 NGC = experiment: Screening antiviral efficacy: viral inhibition at 10 µM in DENV2-infected LLC/MK2 cells, plaque titration; type: cell-based, DENV2 (New Guinea C strain); conditions: for inhibition at 10 µM: Dengue virus
Experimental: The flavone analogs were preliminary screened for their viral inhibitory activity against DENV2 NGC (accession number NC_001474.2) in a LLC/MK2 (ATCC CCL-7™) cell-based system at the final concentration of 10 μM. […] On the other hand, the acylation of the hydroxy groups on the A-ring yielded mixed results.
LLC/MK2 cells (5 × 10^4) were seeded in 24-well plate and incubate at 37 °C under 5% CO2 overnight. Cells were infected with DENV2 NGC at a multiplicity of infection (M.O.I. of 0.1) and compounds at 10 µM were added and DMSO at 1% was used as control. Cultured plates were incubated for 1 h with gentle rocking every 15 min. Cells were washed with PBS, MEM supplemented with 1% FBS, 100 I.U./mL penicillin, and 100 µg/mL streptomycin, 10 mM HEPES was added in a presence of a compound at 10 µM. Cells were incubated at 37 °C with 5% CO2 for 3 days. Supernatants were collected to determine viral titers by plaque titration assay as previously described. The selected compounds were further analyzed for an effective concentration (EC50).

DENV2 [2] = system: DENV2; parameters: method as in PMID 23140177, PMID 29057920; conditions: data according to literature (footnote f); read-out: EC50 (50% effective concentration against DENV2); cited from earlier work
[3] = system: DENV2 replication in Vero cells; parameters: method as in PMID 31441148, PMID 23140177; conditions: cited from earlier work
DENV2 [4] = experiment: Antiviral efficacy (EC50) against DENV2 in LLC/MK2 cells, plaque titration; type: cell-based, DENV2 (New Guinea C strain); conditions: for EC50: Dengue virus, DENV2, LLC/MK2 cells, three independent experiments, read-out: EC50 (50% effective concentration against DENV2); for fold increase in activity compared with 8-bromobaicalein 5f / fold more active than the original baicalein 5a: EC50 against DENV2
Experimental: LLC/MK2 (ATCC® CCL-7), and C6/36 (ATCC® CRL-1660) cell lines were propagated and maintained as previously described[18],[29],[31]. Effective concentration (EC50) of the compounds against the DENV2 were tested using LLC/MK2 cells[18],[29]. Briefly, cells were seeded overnight and infected with each virus at the multiplicity of infection (M.O.I.) of 0.1 for 1 h. The compound was added during and after infection, and cells were incubated for 72 h. Supernatants were collected for plaque titration. EC50 results were means and standard errors of three independent experiments.

[5] = Cellular toxicity in LLC/MK2 cells (MTS assay); type: cell-based; conditions: rhesus monkey; remark: listed apart in the source
dengue and Zika virus = conditions: cited from earlier work
dengue virus = system: dengue virus; parameters: method as in PMID 28389141; conditions: mice administered with luteolin; cited from earlier work
[6] = 10 μM, DENV2 NGC-infected LLC/MK2 cells, NA = not active, read-out: %Inhibition (%viral inhibition against DENV2)
[7] = DENV2, LLC-MK2, read-out: %Inhibition (%viral inhibition against DENV2)
[8] = 10 μM, read-out: %Viability in LLC/MK2 cell

| SMILES | viability at 2 days, 10 µM [1] [%] | inhibition at 10 µM (DENV2 NGC; [6]) [%] | further results |
| --- | --- | --- | --- |
| O=c1cc(-c2ccccc2)oc2ccc(O)cc12 [1a, 6-hydroxyflavone] | 69.5 ± 14.3 | 90 | – |
| COc1ccc2oc(-c3ccccc3)cc(=O)c2c1 [1b, 6-Methoxyflavone] | 95.2 ± 8.12 | – | inhibition at 10 µM (DENV2 NGC; [7]): 77% |
| CCC(=O)Oc1ccc2oc(-c3ccccc3)cc(=O)c2c1 [1c, 6-Propionoxyflavone] | 89.18 ± 0.78 | 73 | – |
| O=c1cc(-c2ccccc2)oc2cc(O)ccc12 [2a, 7-hydroxyflavone] | – | 37.5 | viability at 2 days, 10 µM [1, 8]: 122 ± 7.21% |
| COc1ccc2c(=O)cc(-c3ccccc3)oc2c1 [2b, 7-Methoxyflavone] | 84.5 ± 3.34 | – | inhibition at 10 µM (DENV2 NGC; [7]): 37.5% |
| CCC(=O)Oc1ccc2c(=O)cc(-c3ccccc3)oc2c1 [2c, 7-Propionoxyflavone] | 115 ± 1.55 | 37.5 | – |
| O=c1cc(-c2ccccc2)oc2c(O)c(O)ccc12 [3a, 7,8-dihydroxyflavone] | – | – | viability at 2 days, 10 µM [1, 8]: 79.4 ± 3.2%; inhibition at 10 µM (DENV2 NGC; [7]): 58.3% |
| O=c1cc(-c2ccccc2)oc2c3c(ccc12)OCO3 [3b, 7,8-Dioxoloflavone] | 96.6 ± 1.01 | – | – |
| O=c1cc(-c2ccccc2)oc2cc(O)cc(O)c12 [4a, chrysin] | 84.8 ± 2.03 | 16.7 | – |
| COc1cc(O)c2c(=O)cc(-c3ccccc3)oc2c1 [4b, 5-Hydroxy-7-methoxyflavone] | 97.5 ± 1 | 16.7 | – |
| O=c1cc(-c2ccccc2)oc2cc(OCc3ccccc3)cc(O)c12 [4c, 7-Benzyloxy-5-hydroxyflavone] | 86.1 ± 3.05 | – | – |
| O=c1cc(-c2ccccc2)oc2c(Br)c(O)c(Br)c(O)c12 [4d, 6,8-Dibromo-5,7-dihydroxyflavone] | 101.1 ± 0.44 | – | inhibition at 10 µM (DENV2 NGC; [7]): 83%; EC50 (DENV2 [2]): 1470 ± 860 nM |
| O=c1cc(-c2ccccc2)oc2c([N+](=O)[O-])c(O)cc(O)c12 [4e, 5,7-Dihydroxy-8-nitroflavone] | – | – | viability at 2 days, 10 µM [1, 8]: 52.5 ± 2.59%; inhibition at 10 µM (DENV2 NGC; [7]): 33.3% |
| Nc1c(O)cc(O)c2c(=O)cc(-c3ccccc3)oc12 [4f, 8-Amino-5,7-dihydroxyflavone] | 93.4 ± 3.29 | – | – |
| O=c1cc(-c2ccccc2)oc2cc(O)c(O)c(O)c12 [5a, baicalein] | – | – | IC50 [3]: 23900 nM; selectivity index (SI) [3]: 17.8; viability at 2 days, 10 µM [1, 8]: 92.9 ± 1.44%; inhibition at 10 µM (DENV2 NGC; [7]): 75%; EC50 (DENV2 [2]): 23900 nM |
| COc1cc2oc(-c3ccccc3)cc(=O)c2c(O)c1OC [5b, 5-Hydroxy-6,7-dimethoxyflavone] | 97.5 ± 2.47 | 80 | – |
| CC(=O)Oc1cc2oc(-c3ccccc3)cc(=O)c2c(OC(C)=O)c1OC(C)=O [5c, 5,6,7-Triacetoxyflavone] | – | – | EC50 (DENV2 [4]): 410 ± 560 nM; viability at 2 days, 10 µM [1, 8]: 107 ± 7.34%; inhibition at 10 µM (DENV2 NGC; [7]): 100% |

| SMILES | viability at 2 days, 10 µM [1] [%] | inhibition at 10 µM (DENV2 NGC; [6]) [%] | further results |
| --- | --- | --- | --- |
| CCC(=O)Oc1cc2oc(-c3ccccc3)cc(=O)c2c(OC(=O)CC)c1OC(=O)CC [5d, 5,6,7-Tripropionoxyflavone] | – | – | EC50 (DENV2 [4]): 70 ± 15 nM; fold increase in activity compared with 8-bromobaicalein 5f (DENV2 [4]): over tenfold; also recorded: more than tenfold; fold more active than the original baicalein 5a (DENV2 [4]): over 300 fold; CC50 at 2 days ([5]; LLC/MK2 cells, read-out: CC50): > 100000 nM; viability at 2 days, 10 µM [1, 8]: 83.8 ± 2.61%; inhibition at 10 µM (DENV2 NGC; [7]): 90% |
| CCC(=O)Oc1cc2oc(-c3ccccc3)cc(=O)c2c(O)c1OC(=O)CC [5e, 5-Hydroxy-6,7-dipropionoxyflavone] | 89.6 ± 5.95 | 91.7 | melting point: 132 to 134 °C; EC50 (DENV2 [4]): 68 ± 40 nM; fold increase in activity compared with 8-bromobaicalein 5f (DENV2 [4]): over tenfold; also recorded: more than tenfold; fold more active than the original baicalein 5a (DENV2 [4]): over 300 fold; CC50 at 2 days [5]: > 100000 nM |
| O=c1cc(-c2ccccc2)oc2c(Br)c(O)c(O)c(O)c12 [5f, 8-Bromo-5,6,7-trihydroxyflavone] | 73.4 ± 14.8 | – | inhibition at 10 µM (DENV2 NGC; [7]): 100%; EC50 (DENV2 [2]): 880 ± 140 nM |
| CC(=O)Oc1c(OC(C)=O)c(OC(C)=O)c2c(=O)cc(-c3ccccc3)oc2c1Br [5g, 5,6,7-Triacetoxy-8-bromoflavone] | 50.9 ± 3.22 | 100 | EC50 (DENV2 [4]): 260 ± 140 nM |
| CCC(=O)Oc1c(OC(=O)CC)c(OC(=O)CC)c2c(=O)cc(-c3ccccc3)oc2c1Br [5h, 8-Bromo-5,6,7-tripropionoxyflavone] | 84.5 ± 6.56 | – | melting point: 113 to 115 °C; %Inhibition (%viral inhibition against DENV2) (DENV2 NGC; 10 μM, DENV2 NGC-infected LLC/MK2 cells, NA = not active): inactive |
| COc1cc2oc(-c3ccccc3)cc(=O)c2c(OC)c1OC [5i, 5,6,7-Trimethoxyflavone] | 96.8 ± 11.9 | 44.4 | – |
| COc1cc2oc(-c3ccc(Br)cc3)cc(=O)c2c(OC)c1OC [5j, 4′-Bromo-5,6,7-trimethoxylflavone] | 101 ± 11.1 | 70.4 | – |
| COc1cc2oc(-c3ccc([N+](=O)[O-])cc3)cc(=O)c2c(OC)c1OC [5k, 5,6,7-Trimethoxy-4′-nitroflavone] | 101 ± 1.97 | 70 | – |
| COc1cc2oc(-c3ccc(N)cc3)cc(=O)c2c(OC)c1OC [5l, 4′-Amino-5,6,7-trimethoxyflavone] | 93 ± 2.36 | 62 | – |
| O=c1cc(-c2ccc(Br)cc2)oc2cc(O)c(O)c(O)c12 [5m, 4′-Bromo-5,6,7-trihydroxyflavone] | 90 ± 6.61 | 100 | EC50 (DENV2 [4]): 520 ± 120 nM |
| O=c1cc(-c2ccc([N+](=O)[O-])cc2)oc2cc(O)c(O)c(O)c12 [5n, 5,6,7-Trihydroxy-4′-nitroflavone] | 78.5 ± 9.87 | 100 | EC50 (DENV2 [4]): 4300 ± 560 nM |
| Nc1ccc(-c2cc(=O)c3c(O)c(O)c(O)cc3o2)cc1 [5o, 4′-Amino-5,6,7-trihydroxyflavone] | 109 ± 2.53 | – | – |
| COc1cc2oc(-c3ccc(Br)cc3)cc(=O)c2c(O)c1OC [5p, 4′-Bromo-5-hydroxy-6,7-dimethoxyflavone] | 96.8 ± 5.28 | 64.8 | – |
| COc1cc2oc(-c3ccc([N+](=O)[O-])cc3)cc(=O)c2c(O)c1OC [5q, 5-Hydroxy-6,7-dimethoxy-4′-nitroflavone] | 84.7 ± 5.07 | 98.2 | melting point: 145 to 150 °C; EC50 (DENV2 [4]): 4520 ± 760 nM |
| COc1cc2oc(-c3ccc([N+](=O)[O-])cc3)cc(=O)c2c(O)c1O [5r, 5,6-Dihydroxy-7-methoxy-4′-nitroflavone] | 91.6 ± 0.89 | 22.2 | melting point: 174 to 178 °C |
| CCCCCCCCCCCCOc1c(Br)c(O)c2c(=O)cc(-c3ccccc3)oc2c1Br [IV] | – | – | EC50 (dengue and Zika virus): 4170 nM |
| O=c1cc(-c2ccc(O)c(O)c2)oc2cc(O)cc(O)c12 [luteolin] | – | – | reduction of the virus load (dengue virus): tenfold reduction |
